Source: patent US8674109B2, “Pesticidal compositions” (Dow AgroSciences, LLC., priority 2009, dated 2014)

What was measured:
Type in all cases: in vivo
[1] = test system: beet armyworm (BAW; Spodoptera exigua: Lepidoptera); experiment: Insecticidal test for beet armyworm, 128-well diet tray assay
Procedure: Insecticidal Test for Beet Armyworm (Spodoptera exigua)
(§1) Bioassays on beet armyworm (BAW; Spodoptera exigua: Lepidoptera) were conducted using a 128-well diet tray assay. Three to five second instar BAW larvae were placed in each well (3 mL) of the diet tray that had been previously filled with 1 mL of artificial diet to which 50 μg/cm^2 of the test compound (dissolved in 50 μL of 90:10 acetone-water mixture) had been applied (to each of eight wells) and then allowed to dry. Trays were covered with a clear self-adhesive cover, and held at 25° C., 14:10 light-dark for six days. Percent mortality was recorded for the larvae in each well; activity in the eight wells was then averaged.

[2] = test system: corn earworm (CEW; Helicoverpa zea: Lepidoptera); experiment: Insecticidal test for corn earworm, 128-well diet tray assay
Procedure: Insecticidal Test for Corn Earworm (Helicoverpa zea)
as §1, with “corn earworm (CEW; Helicoverpa zea:” for “beet armyworm (BAW; Spodoptera exigua:”, “CEW” for “BAW”

[3] = test system: green peach aphid (Myzus persicae); experiment: Insecticidal test for green peach aphid in foliar spray assay on cabbage seedlings
Procedure: Insecticidal Test for Green Peach Aphid (Myzus persicae) in Foliar Spray Assay
Cabbage seedlings grown in 3-inch pots, with 2-3 small (3-5 cm) true leaves, were used as test substrate. The seedlings were infested with 20-50 green peach aphids (wingless adult and nymph) one day prior to chemical application. Four pots with individual seedlings were used for each treatment. Compounds (2 mg) were dissolved in 2 mL of acetone/methanol (1:1) solvent, forming stock solutions of 1000 ppm. The stock solutions were diluted 5× with 0.025% Tween 20 in H2O to obtain the solution at 200 ppm. A hand-held Devilbiss sprayer was used for spraying a solution to both sides of cabbage leaves until runoff. Reference plants (solvent check) were sprayed with the diluent only. Treated plants were held in a holding room for three days at approximately 25° C. and 40% relative humidity (RH) prior to grading. Evaluation was conducted by counting the number of live aphids per plant under a microscope. Insecticidal activity was measured by using Abbott's correction formula are presented in Table 2: Corrected % Control=100*(X−Y)/X
where • X=No. of live aphids on solvent check plants • Y=No. of live aphids on treated plants

Row | SMILES | % Mortality BAW 50 μg/cm^2 [1] | % Mortality CEW 50 μg/cm^2 [2] | % Mortality GPA 200 ppm [3]
1 | CC(C)(C#N)OC(=O)Nc1ccc(-c2ncn(-c3ccc(OC(F)(F)F)cc3)n2)cc1 [Compound 14, {4-[1-(4-trifluoromethoxyphenyl)-1H-[1,2,4]triazol-3-yl]-phenyl}-carbamic acid cyano-dimethyl-methyl ester] | B (Less than 50) | B (Less than 50) | 
2 | C[C@H](OC(=O)Nc1ccc(-c2ncn(-c3ccc(OC(F)(F)F)cc3)n2)cc1)c1ccccc1 [Compound 60] | A (50-100) | A (50-100) | 
3 | C=CC(OC(=O)Nc1ccc(-c2ncn(-c3ccc(OC(F)(F)F)cc3)n2)cc1)c1ccccc1 (stereo not drawn) [Compound 70] | A (50-100) | A (50-100) | B (Less than 80)
4 | CC(C)c1ccc(C(C)OC(=O)Nc2ccc(-c3ncn(-c4ccc(OC(F)(F)F)cc4)n3)cc2)cc1 (stereo not drawn) [Compound 38] | A (50-100) | A (50-100) | B (Less than 80)
5 | CC(OC(=O)Nc1ccc(-c2ncn(-c3ccc(OC(F)(F)F)cc3)n2)cc1)c1ccccc1C(F)(F)F (stereo not drawn) [Compound 69] | A (50-100) | A (50-100) | B (Less than 80)
6 | CCOC(=O)C(C)(C)OC(=O)Nc1ccc(-c2ncn(-c3ccc(OC(F)(F)F)cc3)n2)cc1 [Compound 20] | A (50-100) | A (50-100) | B (Less than 80)
7 | CC(C)CC(OC(=O)Nc1ccc(-c2ncn(-c3ccc(OC(F)(F)F)cc3)n2)cc1)c1ccccc1 (stereo not drawn) [Compound 78] | A (50-100) | A (50-100) | B (Less than 80)
8 | Fc1ccc(OC(=S)Nc2ccc(-c3ncn(-c4ccc(OC(F)(F)F)cc4)n3)cc2)cc1 [Compound 134, O-4-fluorophenyl 4-(1-(4-(trifluoromethoxy)phenyl)-1H-1,2,4-triazol-3-yl)phenylcarbamothioate] | B (Less than 50) | B (Less than 50) | B (Less than 80)
9 | C#CC(OC(=O)Nc1ccc(-c2ncn(-c3ccc(OC(F)(F)F)cc3)n2)cc1)c1ccc(C(F)(F)F)cc1 (stereo not drawn) [Compound 66] | A (50-100) | A (50-100) | B (Less than 80)
10 | CC(OC(=O)Nc1ccc(-c2ncn(-c3ccc(OC(F)(F)F)cc3)n2)cc1)c1ccc(C#N)cc1 (stereo not drawn) [Compound 45] | A (50-100) | A (50-100) | B (Less than 80)
11 | CC(OC(=O)Nc1ccc(-c2ncn(-c3ccc(OC(F)(F)F)cc3)n2)cc1)c1ccsc1 (stereo not drawn) [Compound 77] | A (50-100) | A (50-100) | B (Less than 80)
12 | COCC(OC(=O)Nc1ccc(-c2ncn(-c3ccc(OC(F)(F)F)cc3)n2)cc1)c1ccccc1 (stereo not drawn) [Compound 58] | A (50-100) | A (50-100) | B (Less than 80)
13 | Cc1noc(C)c1C(C)OC(=O)Nc1ccc(-c2ncn(-c3ccc(OC(F)(F)F)cc3)n2)cc1 (stereo not drawn) [Compound 86] | A (50-100) | A (50-100) | B (Less than 80)
14 | C=CC(C)(C)OC(=O)Nc1ccc(-c2ncn(-c3ccc(OC(F)(F)F)cc3)n2)cc1 [Compound 19] | A (50-100) | A (50-100) | B (Less than 80)
15 | CC(C)OC(=O)Nc1ccc(-c2ncn(-c3ccc(OC(F)(F)C(F)(F)F)cc3)n2)cc1 [Compound 10] | A (50-100) | B (Less than 50) | B (Less than 80)
16 | O=C(Nc1ccc(-c2ncn(-c3ccc(OC(F)(F)F)cc3)n2)cc1)OC1CCc2ccccc2O1 (stereo not drawn) [Compound 95] | A (50-100) | A (50-100) | B (Less than 80)
17 | CC(OC(=O)Nc1ccc(-c2ncn(-c3ccc(C(F)(F)F)cc3)n2)cc1)c1ccc(C(F)(F)F)cc1 (stereo not drawn) [Compound 27, 1-(4-(trifluoromethyl)phenyl)ethyl 4-(1-(4-(trifluoromethyl)phenyl)-1H-1,2,4-triazol-3-yl)-phenylcarbamate] | A (50-100) | A (50-100) | B (Less than 80)
18 | CC(OC(=O)Nc1ccc(-c2ncn(-c3ccc(OC(F)(F)F)cc3)n2)cc1)c1cnc(Cl)s1 (stereo not drawn) [Compound 54] | A (50-100) | A (50-100) | B (Less than 80)
19 | CC(C)(OC(=O)Nc1ccc(-c2ncn(-c3ccc(OC(F)(F)F)cc3)n2)cc1)C(F)(F)F [Compound 8] | A (50-100) | A (50-100) | B (Less than 80)
20 | CC1(OC(=O)Nc2ccc(-c3ncn(-c4ccc(OC(F)(F)F)cc4)n3)cc2)CCCCC1 [Compound 4] | B (Less than 50) | B (Less than 50) | B (Less than 80)
21 | CCCCC(OC(=O)Nc1ccc(-c2ncn(-c3ccc(OC(F)(F)F)cc3)n2)cc1)c1ccccc1 (stereo not drawn) [Compound 71] | A (50-100) | A (50-100) | B (Less than 80)
22 | CC(OC(=O)Nc1ccc(-c2ncn(-c3ccc(OC(F)(F)F)cc3)n2)cc1)c1ccc(I)cc1 (stereo not drawn) [Compound 35] | A (50-100) | A (50-100) | B (Less than 80)
23 | C#CC(C)(C)OC(=O)Nc1ccc(-c2ncn(-c3ccc(C(F)(F)F)cc3)n2)cc1 [Compound 13, {4-[1-(4-trifluoromethylphenyl)-1H-[1,2,4]triazol-3-yl]-phenyl}-carbamic acid 1,1-dimethyl-prop-2-ynyl ester] | A (50-100) | A (50-100) | B (Less than 80)
24 | C[C@@H](OC(=O)Nc1ccc(-c2ncn(-c3ccc(OC(F)(F)F)cc3)n2)cc1)c1ccccc1 [Compound 61] | A (50-100) | A (50-100) | 
25 | O=C(Nc1ccc(-c2ncn(-c3ccc(OC(F)(F)F)cc3)n2)cc1)Oc1cccc(C(F)(F)F)c1 [Compound 125] |  |  | B (Less than 80)
26 | O=C(Nc1ccc(-c2ncn(-c3ccc(OC(F)(F)F)cc3)n2)cc1)Oc1ccc(C(F)(F)F)cc1 [Compound 126] |  |  | B (Less than 80)
27 | CN(C(=O)OC(C)(C)C)c1ccc(-c2ncn(-c3ccc(OC(F)(F)F)cc3)n2)cc1 [Compound 131, tert-butyl methyl(4-(1-(4-(trifluoromethoxy)phenyl)-1H-1,2,4-triazol-3-yl)phenyl)carbamate] |  |  | B (Less than 80)
28 | CCCCC(OC(=O)Nc1ccc(-c2ncn(-c3ccc(OC(F)(F)F)cc3)n2)cc1)C(=O)OCC (stereo not drawn) [Compound 26, 2-{4-[1-(4-trifluoromethoxyphenyl)-1H-[1,2,4]triazol-3-yl]-phenylcarbamoyloxy}-hexanoic acid ethyl ester] | A (50-100) | A (50-100) | 
29 | O=C(Nc1ccc(-c2ncn(-c3ccc(OC(F)(F)F)cc3)n2)cc1)Oc1ccc(F)cc1 [Compound 127] |  |  | B (Less than 80)
